In patent US7090872B2, “Antioxidant, skin preparation for external use, cosmetic and food” (Nichirei Biosciences Inc., priority 2002, dated 2006):

Assay: Antioxidative activity measurement using linoleic acid (ferric thiocyanate method)
Settings: 0.023 mg of vitamin C (amount contained in 0.4 mg of the solid); control = 100%
Experimental: Next, the antioxidative activity of the obtained extract was measured by antioxidative activity measurement using linoleic acid (ferric thiocyanate method).
Specifically, a mixture of 0.4 mg of the acerola seed extract, 2 ml of 99.5% ethanol, and 2 ml of distilled water was mixed with a reaction liquid composed of 2 ml of 2.5% (w/v) linoleic acid (99.5% ethanol solution) and 4 ml of a 0.05 M phosphate buffer (pH 7.0), and placed in a brown threaded bottle, to thereby prepare 10 ml of a test liquid. On the other hand, test liquids as positive controls were prepared in the same way using α-tocopherol or BHA in place of the acerola seed extract at the same content in the reaction liquid. […] Samples were taken out at intervals, and measured by the following methods. […]
First, to a mixture of 0.1 ml of the sample, 9.7 ml of 75% ethanol, and 0.1 ml of a 30% aqueous solution of ammonium rhodanide, 0.1 ml of 2×10^−2 M ferrous chloride (3.5% hydrochloric acid solution) was added, and exactly 3 minutes later, the absorbance at 500 nm was measured. The same measurement was made with the blanks, and Δabsorbance was taken according to the following formula: Δ absorbance=(absorbance of main sample)−(absorbance of blank). The absorbance increases with oxidation of the sample, and after reaching the maximum, decreases with consumption of the sample to be oxidized. […]

O=C1O[C@H]([C@@H](O)CO)C(O)=C1O [vitamin C]
degree of oxidation on day 7: 115.8%
